Measured values taken from ChEMBL document CHEMBL3112464, “Novel, sulfonamide linked inhibitors of the hepatitis C virus NS3 protease” (Bioorg Med Chem Lett, 2014).

Experiments:
[1] = Inhibition of HCV genotype 1b NS3/4A protease; set-up: species or system Hepatitis C virus subtype 1b
[2] = system: Hepatitis C virus; test: Antiviral activity against HCV genotype 1b infected in Rluc cells by 384 well-format assay; assay type: functional, organism-based, Hepacivirus hominis

Structure (SMILES) | IC50 [1] | EC50 [2]
C=C[C@@H]1C[C@]1(NC(=O)[C@@H]1C[C@@H](Oc2cc(-c3nc(C(C)C)cs3)nc3c(C)c(OC)ccc23)[C@H]2CCCC(=O)N21)C(=O)NS(=O)(=O)C1CC1 | 47 nM | > 2000 nM
COc1ccc2c(O[C@@H]3C[C@H]4C(=O)N[C@]5(C(=O)O)C[C@H]5/C=C\CCCCCCS(=O)(=O)N4C3)cc(-c3nc(C(C)C)cs3)nc2c1C | 712 nM | > 2000 nM
COc1ccc2c(O[C@@H]3C[C@H]4C(=O)N[C@]5(C(=O)NS(=O)(=O)C6CC6)C[C@H]5/C=C\CCCCCCC(=O)N4C3)cc(-c3nc(C(C)C)cs3)nc2c1C | 0.3 nM | 5.8 nM
COc1ccc2c(O[C@@H]3C[C@H]4C(=O)N[C@]5(C(=O)NS(=O)(=O)C6CC6)C[C@H]5CCCCCCCCS(=O)(=O)N4C3)cc(-c3nc(C(C)C)cs3)nc2c1C | 7.4 nM | 257 nM
COc1ccc2c(O[C@@H]3C[C@H]4C(=O)N[C@]5(C(=O)NS(=O)(=O)C6CC6)C[C@H]5/C=C\CCCCCCS(=O)(=O)N4C3)cc(-c3nc(C(C)C)cs3)nc2c1C | 13 nM | 440 nM
COc1ccc2c(O[C@@H]3C[C@H]4C(=O)N[C@]5(C(=O)NS(=O)(=O)C6CC6)C[C@H]5/C=C\CCCCCC(=O)N4C3)cc(-c3nc(C(C)C)cs3)nc2c1C | 0.4 nM | 4 nM
C=C[C@@H]1C[C@]1(NC(=O)[C@@H]1C[C@@H](Oc2cc(-c3nc(C(C)C)cs3)nc3c(C)c(OC)ccc23)[C@H]2CCCS(=O)(=O)N21)C(=O)NS(=O)(=O)C1CC1 | 639 nM | > 2000 nM
COc1ccc2c(O[C@@H]3C[C@H]4C(=O)N[C@]5(C(=O)O)C[C@H]5/C=C\CCCCCS(=O)(=O)N4C3)cc(-c3nc(C(C)C)cs3)nc2c1C | 747 nM | > 2000 nM
COc1ccc2c(O[C@@H]3C[C@H]4C(=O)N[C@]5(C(=O)NS(=O)(=O)C6CC6)C[C@H]5CCCCCCCS(=O)(=O)N4C3)cc(-c3nc(C(C)C)cs3)nc2c1C | 4.7 nM | 89 nM
COc1ccc2c(O[C@@H]3C[C@H]4C(=O)N[C@]5(C(=O)NS(=O)(=O)C6CC6)C[C@H]5/C=C\CCCCCS(=O)(=O)N4C3)cc(-c3nc(C(C)C)cs3)nc2c1C | 2.9 nM | 79 nM
